# Test results: publication PMC12876990, “Targeting secreted PLA2 interactions with EGFR and vimentin to arrest prostate tumour growth” (Cell Death & Disease, 2025)
# Square brackets hold non-standard residues; d marks the D form. Peptide text beside a SMILES is read from it. 2Nal = N[C@@H](Cc1ccc2ccccc2c1)C(=O)O
# Key:
# [1] = 28-day oral toxicity study: body weights; format: in vivo, male Sprague Dawley rats
# Protocol: 3.6. Procedure for test item administration
# (§1) intragastric cannula attached to a 3 mL syringe.
# 3.7. Observation of animals
# (§2) groups: Day 29; recovery groups: Day 43).
# (Appendix C Study Data Spreadsheets).
# (§3) report (Appendix C Study Data Spreadsheets). […]
# [2] = system: PCa cell lines LNCaP, PC-3 and DU145; test: Cell permeability of c2 by live cell confocal imaging of its autofluorescence; format: cell-based; settings: 100 µM, 24 hours
# Protocol: The naphthyl groups in the structure of c2 give the compound a unique autofluorescence emission spectral signature, which was characterised (Fig. S3a, b), allowing the direct imaging of c2 internalisation and localisation. […] Internalisation confirmed via z-stack (Fig. S3c).
# For all live cell imaging, cells were seeded on a 24-well glass-bottom Senso plates (Greiner Bio-one) and imaged at 37 °C and 5% CO2 with the LSM 800 (Zeiss). For c2 imaging, cells were incubated with c2 100 µM for 24 hours before excitation with 488 nm and emission 500-700 nm detected. For hGIIA entry, PC-3, LNCaP, DU145 and RA57 hGIIA/AF647 in cells were stained with 30 nM DAPI for 10 mins, cells were washed with PBS and then stained with 1 μg/mL of propidium iodide for 10 mins to confirm cell viability. Cells were washed three times with PBS and then cells were incubated with 200 ng/mL hGIIA/AF647, with entry imaged over 16 hours. Imaging parameters were kept consistent across all time points and cell lines.
# [3] = 28-day oral toxicity study: feed consumption
# Protocol: The calculated volumetric do se wa s administered to each rat orally by gav age, using a plastic
# Two dose level s of 1 and 20 mg/kg of the te st it em susp ension were administered to each rat
# every 3 days (total 10 do ses) for 28 days. This c orresponded to volumetric dose of 10.09 and
# 10.23 mL/kg. The volumetric dose administered to each animal was calculated on Days 1, 8, 15
# Feed consumption was monitored weekly over the 28-day experimental period in all groups
# and was continued for a further 2 weeks in the recovery groups (42-day experimental
# period). Feed intake was monitored by providing a known mass of feed to each cage and
# subtracting the mas s remaining at the end of th e weekly period. Animals were fa sted
# overnight on either Day 28 (main groups) or Day 42 (recovery groups).
# [4] = 28-day oral toxicity study: haematology analysis; format: in vivo, male Sprague Dawley rats; settings: for MCHC: calculated value
# Protocol: Blood analyse s (haematology and biochemistry) w ere performed on all animals on Day 29 (main groups) or Day 43 (recovery groups). Approximately 4 mL of blood was taken from ea ch animal by cardiac puncture using a 10 mL syringe and 21-gauge needle. The procedure involved anaesthetising by intraperitoneal injection of sodi um pentobarbitone using a 2 mL sterile plastic syringe attached to a 26-gauge needle (Terumo).
# For each blood sampling, the blood was divided into two aliquots: (i) one was placed into a tube containing EDTA (for whole blood and EDTA plasma), (ii) one aliquot into a Li-heparin tube.
# 3.9.1. Haematology analysis
# The following parameters were analysed: Red blood cell (RBC), haemoglobin (Hb), haematocrit (Hct), mean corpuscular volume (MCV), mean corpuscular haemoglobin (MCH), mean corpuscular haemoglobin concentration (MCHC), platelet count (PLT), mean platelet volume (MPV), white blood count (WBC), neutrophil (Neut), lymphocyte (Lymph), monocytes (Mono), eosinophil (Eos), basophil (Baso).
# Results and methods of analysis were attached in an appendix to the report (Appendix D Haematology and Biochemistry). Blood smear s for cell morphology were prepared. By convention only abnormal findings on smear evaluation were reported. […]
# Haematology and Biochemistry). […]
# (§4) (Appendix C Study Data Spreadsheets). […]
# [5] = 28-day oral toxicity study: functional observation; format: in vivo, male Sprague Dawley rats; settings: for Grip strength (mean) Forelimb / Grip strength (mean) Hind limb: week 4
# Protocol: 3.6. Procedure for test item administration […]
# as §1
# 3.7. Observation of animals […]
# as §2, §4, §3
# 3.7.5. Functional observation […]
# s upine drop, grip strength test. […]
# [6] = molecular target: T1, hGIIA/vimentin interaction (Homo sapiens, UniProt P08670); test: Enzyme immunoassay of hGIIA binding to vimentin coil 2; settings: in vitro; read-out: IC50, inhibition of the interaction between hGIIA and vimentin
# T1 construct: Purified vimentin fragments (full length or coil 2) were seeded to a 96-well microplate at 15 μg/mL; hGIIA purified in house from conditioned medium of CHO cell line 2B1
# Protocol: Prior to assay, hGIIA antibody 4A1 was conjugated to alkaline phosphatase (4A1-AP), produced using the lightning-link conjugation kit (ab102850, Abcam) as per the manufacturer’s instructions.
# Purified vimentin fragments (full length or coil 2) were seeded to a 96-well microplate at 15 μg/mL with a 100 μL/well volume. After an overnight incubation at 4 °C, the plate was emptied. Each well was then blocked overnight at 4 °C with 200 μL of 1% BSA in PBS. The plate was emptied and washed with PBST (PBS + 0.05% Tween20). hGIIA solution of 100 ng/mL in PBS with 0.1% BSA was prepared with and without inhibitors c2, Withaferin A and LY311727 in DMSO with concentrations 0.1-100 µM. hGIIA working solution with 0.4% DMSO served as a positive control and PBS with 0.1% BSA served as a negative control. A 100 μL volume of each prepared hGIIA-inhibitor mixture was added to wells in triplicate and incubated at 37 °C for two hours. The plate was washed twice with PBST, then incubated with the 4A1-AP conjugate at 1 μg/mL 0.1% BSA in PBS and incubated for one hour at 37 °C. Plates were then emptied and washed three times with PBST, followed by washing twice with carbonate buffer (8 mM Na2CO3, 36 mM NaHCO3, 2 mM MgCl2, pH 9.8), before incubation with AP substrate p-nitro-phenyl phosphate (PNPP) powder at 1 mg/mL concentration in carbonate buffer. The plate was incubated at 37 °C for 60 mins then absorbance was read at 405 nm by a Spectramax M2 plate reader. All washes were a 200 µL/well volume.
# [7] = 28-day and 42-day experimental period
# [8] = Day 43, Gr 5 recovery, 20 mg/kg
# T1 sequence (P08670 269-407 limits assumed): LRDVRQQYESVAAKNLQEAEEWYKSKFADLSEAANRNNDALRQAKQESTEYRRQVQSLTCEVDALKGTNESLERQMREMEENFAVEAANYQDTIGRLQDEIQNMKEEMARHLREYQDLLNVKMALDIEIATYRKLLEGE
structure (smiles),measurement,setting,value
"CC(C)C[C@@H]1NC(=O)[C@H](Cc2ccc3ccccc3c2)NC(=O)[C@H](CCCNC(=N)N)NC(=O)[C@H](Cc2ccc3ccccc3c2)NC(=O)[C@H](CO)NC1=O [c2, cyclo-((2-Nal)-Leu-Ser-(2-Nal)-Arg)] (cyclo([2Nal]LS[2Nal]R))",percentage body weight gain,"[1]; 4-week observation period, Gr 2, 1 mg/kg",55.4 ± 8.84%
same,body weight gains vs vehicle control,[1]; [7],comparable
same,Mean body weight,"[1]; Day 1, Gr 2, 1 mg/kg",261 ± 14.0 g
same,Mean body weight,"[1]; Day 1, Grs 3 & 5, 20 mg/kg",257 ± 11.3 g
same,Mean body weight,"[1]; Day 8, Gr 2, 1 mg/kg",312 ± 15.3 g
same,Mean body weight,"[1]; Day 8, Grs 3 & 5, 20 mg/kg",312 ± 14.1 g
same,Mean body weight,"[1]; Day 15, Gr 2, 1 mg/kg",356 ± 22.3 g
same,Mean body weight,"[1]; Day 15, Grs 3 & 5, 20 mg/kg",354 ± 20.8 g
same,Mean body weight,"[1]; Day 22, Gr 2, 1 mg/kg",387 ± 24.9 g
same,Mean body weight,"[1]; Day 22, Grs 3 & 5, 20 mg/kg",392 ± 24.5 g
same,Mean body weight,"[1]; Day 28, Gr 2, 1 mg/kg",406 ± 31.0 g
same,Mean body weight,"[1]; Day 28, Grs 3 & 5, 20 mg/kg",414 ± 27.3 g
same,Mean body weight,"[1]; Day 29 after overnight fasting, Gr 2, 1 mg/kg",395 ± 28.0 g
same,Mean body weight,"[1]; Day 29 after overnight fasting, Gr 3, 20 mg/kg",395 ± 31.5 g
same,Mean body weight,"[1]; Day 36, Gr 5 recovery, 20 mg/kg",458 ± 12.0 g
same,Mean body weight,"[1]; Day 42, Gr 5 recovery, 20 mg/kg",480 ± 11.6 g
same,Mean body weight,"[1]; Day 43 after overnight fasting, Gr 5 recovery, 20 mg/kg",460 ± 12.3 g
same,body weight gain,"[1]; Week 1, Gr 2, 1 mg/kg",19.6 ± 2.49%
same,c2 detection in cells,[2],detected in all cell lines
same,feed intake vs control,[3]; [7],similar
same,Mean feed intake/cage/week,"[3]; Week 1, Gr 2, 1 mg/kg, 5 animals/cage",801 ± 26.9 g
same,Mean feed intake/cage/week,"[3]; Week 1, Grs 3 & 5, 20 mg/kg",819 ± 55.4 g
same,Mean feed intake/cage/week,"[3]; Week 2, Gr 2, 1 mg/kg",839 ± 12.0 g
same,Mean feed intake/cage/week,"[3]; Week 2, Grs 3 & 5, 20 mg/kg",877 ± 45.1 g
same,Mean feed intake/cage/week,"[3]; Week 3, Gr 2, 1 mg/kg",845 ± 0 g
same,Mean feed intake/cage/week,"[3]; Week 3, Grs 3 & 5, 20 mg/kg",916 ± 35.2 g
same,Mean feed intake/cage/week,"[3]; Week 4, Grs 3 & 5, 20 mg/kg",815 ± 42.0 g
same,Mean feed intake/cage/week,"[3]; Week 5, Gr 5 recovery, 20 mg/kg",1013 g
same,Mean feed intake/cage/week,"[3]; Week 6, Gr 5 recovery, 20 mg/kg",802 g
same,Mean feed intake/cage/week,"[3]; week 4, Gr 2, 1 mg/kg",775 ± 27.6 g
same,Hb,"[4]; Day 29, Gr 2, 1 mg/kg",157 ± 4.7 g/L
same,PLT,"[4]; Day 29, Gr 2, 1 mg/kg",1184 ± 127.7 x 109 / L
same,MCHC,"[4]; Day 29, Gr 2, 1 mg/kg",344 ± 5.1 g/L
same,Hb,"[4]; Day 29, Gr 3, 20 mg/kg",159 ± 3.0 g/L
same,PLT,"[4]; Day 29, Gr 3, 20 mg/kg",1191 ± 93.8 x 109 / L
same,MCHC,"[4]; Day 29, Gr 3, 20 mg/kg",351 ± 4.0 g/L
same,blood haematology,[4]; Day 29 and Day 43,no obvious test item related effect
same,Baso,[4]; [8],0 L⁻¹
same,Hb,[4]; [8],154 ± 1.8 g/L
same,PLT,[4]; [8],1182 ± 143.7 x 109 / L
same,MCHC,[4]; [8],353 ± 4.2 g/L
same,functional observations tests,[5]; Week 4,no effect
same,Grip strength (mean) Forelimb,"[5]; Gr 2, 1 mg/kg",487 ± 33.0
same,Grip strength (mean) Hind limb,"[5]; Gr 2, 1 mg/kg",59 ± 3.2
same,Grip strength (mean) Forelimb,"[5]; Gr 3, 20 mg/kg",458 ± 39.9
same,Grip strength (mean) Hind limb,"[5]; Gr 3, 20 mg/kg",57 ± 2.5
same,Grip strength (mean) Forelimb,"[5]; Gr 5, 20 mg/kg",456 ± 47.2
same,Grip strength (mean) Hind limb,"[5]; Gr 5, 20 mg/kg",61 ± 3.8
same,IC50,[6],56.5 µM
